#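 Briefly, cells in 96-well plates were exposed to five compound concentrations for 48 h, and endpoints were estimated by linear interpolation. At the TGI there is no net growth.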
# Experiments:
# Assay in all cases: NCI tumour cell line growth inhibition, 48 h
# CAKI-1 renal = test system: CAKI-1 renal
# CCRF-CEM leukemia = test system: CCRF-CEM leukemia
# DU-145 prostate = test system: DU-145 prostate
# HCT-116 colon = test system: HCT-116 colon
# HL-60(TB) leukemia = test system: HL-60(TB) leukemia
# HOP-62 NSCLC = test system: HOP-62 NSCLC
# HOP-92 NSCLC = test system: HOP-92 NSCLC
# HT29 colon = test system: HT29 colon
# IGROV1 ovarian = test system: IGROV1 ovarian
# MALME-3M melanoma = test system: MALME-3M melanoma
# RXF 393 renal = test system: RXF 393 renal
# SF-268 CNS = test system: SF-268 CNS
# SK-MEL-2 melanoma = test system: SK-MEL-2 melanoma
# SW-620 colon = test system: SW-620 colon
# MDA-MB-231 breast = test system: MDA-MB-231 breast
# SR leukemia = test system: SR leukemia
SMILES,TGI (CAKI-1 renal) [µM],TGI (CCRF-CEM leukemia) [µM],TGI (DU-145 prostate) [µM],TGI (HCT-116 colon) [µM],TGI (HL-60(TB) leukemia) [µM],TGI (HOP-62 NSCLC) [µM],TGI (HOP-92 NSCLC) [µM],TGI (HT29 colon) [µM],TGI (IGROV1 ovarian) [µM],TGI (MALME-3M melanoma) [µM],TGI (RXF 393 renal) [µM],TGI (SF-268 CNS) [µM],TGI (SK-MEL-2 melanoma) [µM],TGI (SW-620 colon) [µM],TGI (MDA-MB-231 breast) [µM],TGI (SR leukemia) [µM]
O=C1C=CC=C/C1=C1\N=C(c2ccccc2OCC(=O)c2ccc(Br)cc2)SS1,> 100,> 100,> 100,> 100,> 100,24,> 100,> 100,71.3,> 100,> 100,> 100,> 100,> 100,,
c1ccc(CSP234N5CCN2CCN3CCN4CC5)c(CSP234N5CCN2CCN3CCN4CC5)c1,> 100,> 100,> 100,> 100,77,> 100,> 100,> 100,> 100,,,> 100,> 100,> 100,> 100,> 100
COc1cc2c(cc1OC)CCc1cc(OC)c(OC)cc1CC2,> 100,> 100,> 100,> 100,,> 100,> 100,> 100,> 100,> 100,,,> 100,> 100,> 100,> 100
N#Cc1nc(C2=C(Cl)c3ccccc3OC2)[nH]c1C#N,> 100,> 100,,,70.7,,31,41.5,> 100,,38.8,> 100,,> 100,,
COC(=O)C(=Cc1cc(OC)c(OC)c(OC)c1-c1cc2c(cc1C(C)=O)OCO2)C(=O)OC,108,> 211,,62.5,172,67.1,124,77,134,78.3,63.7,133,61.7,102,,> 211
C/C(=C1/CCC/C(=C(/C)c2ccccc2)C1=O)c1ccccc1,,49.8,,55.5,27.9,,> 100,86.8,> 100,46.7,47.6,> 100,38.7,> 100,,43.5
C=C(CC[C@@H](C)[C@H]1CC[C@@]2(C)C3=C(CC[C@]12C)[C@@]1(C)CC[C@H](O)[C@@H](C)C1CC3)C(C)C (some centres not stated),2.26,2.22,,2.48,8.32,1.9,2.54,1.97,8.32,2.51,2.54,,2.93,3.44,2.74,2.71
O=c1c2cc(S(=O)(=O)O)ccc2nc(COc2ccc(Oc3ccc(Cl)cc3Cl)cc2)n1-c1ccc(Cl)cc1Oc1c(Cl)cccc1Cl,> 100,> 100,> 100,67.8,> 100,> 100,47.1,39.9,> 100,> 100,,35.7,35.6,79.6,,96.7
c1csc(-c2cc(-c3cccs3)c(-c3ccsc3)s2)c1,> 100,> 100,> 100,> 100,> 100,> 100,,> 100,> 100,> 100,,> 100,> 100,> 100,> 100,> 100
Cc1ccc(-c2c3nc(c(-c4ccc(C)cc4)c4ccc([nH]4)c(-c4ccc(OCC5COC(C)(C)O5)cc4)c4nc(c(-c5ccc(C)cc5)c5ccc2[nH]5)C=C4)C=C3)cc1 (configuration not stated),> 100,,> 31.6,> 31.6,,> 31.6,> 100,> 31.6,> 31.6,> 31.6,,> 31.6,> 31.6,> 31.6,> 31.6,> 31.6
CCO/N=C(/N)c1ncn(Cc2ccccc2)c1NCC(OCC)OCC,> 100,> 100,,> 100,,> 100,,> 100,> 100,> 100,99.5,> 100,> 100,> 100,,
CC1(C)CC(=O)C(/C=N/c2nc(-c3ccccc3)cs2)=C(O)C1,,,> 100,> 100,> 100,> 100,> 100,> 100,87.9,,,,> 100,> 100,96.8,
O=C(Nc1ccc(Cl)cc1Cl)C(=O)C(C(=O)c1ccncc1)C1OC(=O)c2ccccc21 (configuration not stated),> 100,> 100,,> 100,> 100,> 100,> 100,> 100,> 100,> 100,> 100,> 100,,> 100,,> 100
CCn1c2ccccc2n2c(=O)c3c(c(C#N)c12)CCCC3,> 100,> 100,> 100,> 100,> 100,,> 100,> 100,> 100,> 100,,> 100,> 100,> 100,> 100,
NC(=S)Nc1ccc(S(=O)(=O)Nc2ccc(S(N)(=O)=O)cc2)cc1,> 100,> 100,> 100,> 100,> 100,> 100,> 100,> 100,> 100,> 100,> 100,,> 100,> 100,> 100,
CC(C)N1CN(C(C(=O)N[C@@H]2C(=O)N3C2SC(C)(C)C3C(=O)O)c2ccccc2)CSC1=S (some centres not stated),> 100,> 100,,> 100,> 100,> 100,> 100,> 100,> 100,> 100,,> 100,> 100,,,
COc1cc(OC)c2c(=O)c(OC)c(-c3ccc4c(c3)OCO4)oc2c1,60.5,> 100,> 100,> 100,> 100,74.6,,> 100,> 100,> 100,72.6,66.6,42.5,> 100,> 100,

# From PubChem BioAssay (NCI)
